EP3248604A1, “AGENTS FOR MODULATION OF WNT-TCF SIGNALLING AND USES THEREOF” (UNIVERSITE DE GENEVE, priority 2016, dated 2017)
pIC50: −log10 of the molar value.

Columns and labels:
Type in all cases: cell-based, human
[1] = tested on: WNT-TCF targets; assay: RT-qPCR gene expression in H358 lung cancer cells; details: 16h, batch 3, vs DMSO=1
Protocol: (§1) RT-qPCR was performed as in Melotti et al. (2014, supra) using BioRad equipment and reagents. Cells cultured in nitro were treated with the desired concentration of drug in DMEM-F12 and reduced serum (2.5% FBS) for 16h, unless otherwise noted, and collected in Trizol (Sigma) before total RNA extraction and cDNA synthesis. Primers were as in Table 1. HPRT (gene encoding Hypoxanthine phosphoribosyltransferase 1) and βACTIN were used as housekeeping controls for normalization.
Primary colon cells CC14, CC36 and mCC11, colon cancer cell lines DLD1, HT29, Ls174T, melanoma cell line MeWo, glioblastoma cell lines U87 and U251, and the lung cancer cell line H358 were cultured in DMEM-F12 with 10% FBS under standard in nitro conditions.

[2] = tested on: DLD1 cells; assay: Clonal spheroid assay, DLD1; details: Homo sapiens, DLD-1, 16 h, read-out: IC50, number of stem cell-derived spheroids
Protocol: Cells were treated with different concentrations of compounds for 16h in 2D adherent culture, washed, harvested and plated in suspension with serum-free DMEM-F12 media with B27 supplement (1:50 dilution) at 1 cell/well in 96-well format in triplicates. Plated cells were monitored to ensure the presence of single cells in each well and spheroids counted and photographed after 10 days for each round.
To directly test for a long-lasting repression of WNT-TCF targets by CAP2 clonogenic properties of cancer stem cells were tested. DLD1 and LS174T cells were first treated with CAP2 in 2D culture in vitro followed by removal of the drug, washing with PBS, and plating under non-adherent 3D conditions for clonal spheroid growth in the absence of the drug. After primary spheroid growth, the spheroids were dissociated and replated as single cells for secondary and subsequent clonogenic spheroid formation, also in the absence of the compound of the invention. As negative control DMSO-treatment was used.

[3] = tested on: WNT-TCF targets; assay: Epistatic rescue with TCF^VP16, DLD1; details: CAP2 5µM, 16h
Protocol: (§2) Lentivectors expressing a TCF4^VP16 protein in a vector independently expressing GFP, or vector alone, plus reporter plasmids were transfected into cells. 72h after transfection cells were visually checked for expression of GFP. Independent batches of cells with >80% GFP expression were chosen for further experimentation and treated with or without compounds in DMEM-F12 (with 2.5% FBS) for 16h and collected in Trizol.
(§3) If the effects of CAP2 on WNT-TCF targets were specific, an activated form of TCF should rescue the repression since CAP2 is likely to act downstream of the APC destruction complex since it was found using an N'Δ form of βCATENIN that is APC insensitive. To activate this last step of canonical WNT signaling, a fusion between TCF and the potent transactivation domain of the viral VP16 protein, TCF^VP16 (Melotti et al., 2014, supra), was used to directly and positively regulate TCF targets. […] Rescue of LGR5, cMYC and ASCL2 repression by CAP2 (at 5µM) was also observed although there was variability between the cell types, similarly to the repression of CDKN1A (Table 8), although in all cases it reversed its enhancement by CAP2 treatment (Table 8).

[4] = tested on: WNT-TCF targets; assay: Epistatic rescue with TCF^VP16, mCC11; details: CAP2 5µM, 16h
Protocol: as §2, §3

[5] = tested on: Epigenetic regulators; assay: RT-qPCR gene expression in Ls174T cells, epigenetic regulators; set-up: key: ratio normalized to DMSO control = 1; details: vs DMSO=1
Protocol: as §1
Nine components of the three pathways (WNT-TCF, BMP/TGFβ and chemokine/cytokine), and the top 6 repressed epigenetic regulators (ZMYND8, EED, SMARCAL1, TBLIXR1, SETD6 and TAF5L) (Figure 12) were tested for their modulation by dnTCF and their timed response to CAP2 treatment. […] DnTCF also repressed the expression of BMP4, SMAD6, IL8, CXCL3 and CXCL5, but expression of IL33 was enhanced. […] BMP4 and ID2 were also repressed at 2 and 4h but SMAD6 was repressed only at 4h. CXCL3 was already repressed at 2h, IL8 was little affected and IL33 and CXCL5 were enhanced at 2h. At 4 h only CXCL3 was repressed and the other three cytokine/chemokine genes tested (IL8, IL33 and CXCL5) were neither enhanced nor repressed. […] All values are normalized ratios with DMSO-controls, which were equated to 1 Table 14

[6] = tested on: Epigenetic regulators; assay: RT-qPCR of epigenetic regulators in HT29 cells; details: 0.5 µM
Protocol: as §1
(§4) The WNT-TCF-independent repressive activity of CAP2 on epigenetic regulators may be extrapolated to other cancer cells as it was also detected in HT29 and CC14 human colon cancer cells, in MeWo human melanoma cells as well as in U87 and U251 human glioma cells. In all these different human cancer cells, CAP2 (at 0.5 µM) modulated the expression of ZMYND8, SMARCAL1, TBLIXR1, SETD6 and TAF5Ls (Table 15).

[7] = tested on: Epigenetic regulators; assay: RT-qPCR of epigenetic regulators in CC14 cells; details: 0.5 µM
Protocol: as §1, §4

[8] = tested on: Epigenetic regulators; assay: RT-qPCR of epigenetic regulators in MeWo cells; details: 0.5 µM
Protocol: as §1, §4

[9] = tested on: Epigenetic regulators; assay: RT-qPCR of epigenetic regulators in U87 cells; details: 0.5 µM
Protocol: as §1, §4

## CC1=C(C)C(=O)O[C@@H]([C@](C)(O)[C@]2(O)CC[C@@]3(O)[C@@H]4CC=C5CC=CC(=O)[C@]5(C)[C@H]4CC[C@]23C)C1 [CAP2]
[1]; 1.25µM
  AXIN2 expression: 0.8
  LEF1 expression: 0.4
[1]; 2.5µM
  AXIN2 expression: 0.7
  LEF1 expression: 0.6
[1]; 5µM
  AXIN2 expression: 0.6
  LEF1 expression: 0.4
[1]; 10µM
  AXIN2 expression: 0.4
  LEF1 expression: 0.2
[2]
  pIC50: > 5.90
[3]
  ASCL2 expression, TCF^VP16+ CAP2 / control + CAP2: 1.5
  AXIN2 expression, TCF^VP16+ CAP2 / control + CAP2: 3.4
  CDKN1A expression, TCF^VP16+ CAP2 / control + CAP2: 0.4
  LGR5 expression, TCF^VP16+ CAP2 / control + CAP2: 1.4
  cMYC expression, TCF^VP16+ CAP2 / control + CAP2: 0.8
[4]
  ASCL2 expression, TCF^VP16+ CAP2 / control + CAP2: 3.5
  AXIN2 expression, TCF^VP16+ CAP2 / control + CAP2: 21.9
  CDKN1A expression, TCF^VP16+ CAP2 / control + CAP2: 0.8
  LGR5 expression, TCF^VP16+ CAP2 / control + CAP2: 2.9
  cMYC expression, TCF^VP16+ CAP2 / control + CAP2: 3.3
[5]; 5µM batch 3, 2h post-treatment
  EED expression: 1.5
  SETD6 expression: 2.0
  SMARCAL1 expression: 1.6
  TAF5L expression: 0.8
  TBL1XR1 expression: 2.6
  ZMYND8 expression: 1.3
[5]; 5µM batch 3, 4h post-treatment
  EED expression: 0.5
  SETD6 expression: 0.7
  SMARCAL1 expression: 0.8
  TAF5L expression: 0.3
  TBL1XR1 expression: 0.6
  ZMYND8 expression: 0.5
[6]
  EED expression: 0.3
  SETD6 expression: 0.2
  SMARCAL1 expression: 0.2
  TAF5L expression: 0.4
  TBL1XR1 expression: 0.02
  ZMYND8 expression: 0.1
[7]
  EED expression: 0.3
  SETD6 expression: 0.4
  SMARCAL1 expression: 0.2
  TAF5L expression: 0.5
  TBL1XR1 expression: 0.2
  ZMYND8 expression: 0.1
[8]
  EED expression: 0.5
  SETD6 expression: 1
  SMARCAL1 expression: 0.2
  TAF5L expression: 0.8
  TBL1XR1 expression: 0.2
  ZMYND8 expression: 0.1
[9]
  EED expression: 0.2
  SETD6 expression: 0.3
  SMARCAL1 expression: 0.2
  TAF5L expression: 0.5
  TBL1XR1 expression: 0.2
  ZMYND8 expression: 0.1
